Source: patent US10351523B2, “UV-absorbing compounds with at least one reactive hydrogen” (ISP INVESTMENTS LLC, priority 2013, dated 2019)

Experiment: Water solubility of the isolated powder (observation after work-up)
Assay type: physicochemical
Details: isolated lemon-yellow powder
Procedure: (§1) To a premixed solution of 6.0 g ethylene diamine in 30 ml ethanol was added 30.8 g of 5-benzoyl-4-hydroxy-2-methoxy benzenesulfonic acid and stirred well until a solution was formed. The mixture was heated to 130° C. for 16 hours and then cooled to 70° C. The ethanol residue was flashed off in a vacuum oven at 70° C.
as §1, with “11.6” for “6.0”, “hexamethylene” for “ethylene”, “40 g” for “30 ml”
An amount of 7.4 g propylene diamine, 30.8 g of 5-benzoyl-4-hydroxy-2-methoxy benzenesulfonic acid, and 30 ml of 1:1 ethanol-water mixture was stirred well until a clear solution was obtained. […] The ethanol residue was flashed off in a vacuum oven at 70° C.

| Substance | solubility in water |
| --- | --- |
| 2-hydroxy-4-methoxy-5-(N-3-aminopropyl)sulfonamido-4′-methylbenzophenone [Example 5] | insoluble in water |
| 2-hydroxy-4-methoxy-5-(N-6-aminohexyl) sulfonamido-4′-methylbenzophenone [Example 4] | insoluble in water |
